In publication PMC4366150, “Inhibiting EGFR Dimerization Using Triazolyl-Bridged Dimerization Arm Mimics” (PLoS ONE, 2015):
Positions of bridges follow the written chain, without caps; N, C: chain ends. Non-standard residues stand in square brackets, D forms with d. Residues, ends and D or L forms follow the SMILES beside them. Triazole bridges read from a SMILES are 1,4-linked. *: point of attachment. 5FAM = O=C1OC2(c3ccc(O)cc3Oc3cc(O)ccc32)c2ccc(C(=O)*)cc21; Aha = [N-]=[N+]=NCC[C@H](N)C(=O)O; Nle = CCCC[C@H](N)C(=O)O; Pra = C#CC[C@H](N)C(=O)O; βAla = NCCC(=O)O

Tests used:
Format in all cases: cell-based
EGFR p-Tyr1068 = experiment: EGFR phosphorylation (Tyr1068) in MDA-MB-231 cells, western blot; details: 30 min pretreatment, 50 ng/mL EGF 5 min
Protocol: (§1) The EDA peptides were first tested to see if they could downregulate EGFR activation. Receptor activation was monitored as a function of EGFR autophosphorylation on Tyr1068 in intact MDA-MB-231 cells (Fig. 5a and b and S3 Fig.). The receptor was stimulated with EGF for 5 min following a 30 min peptide pretreatment.
Fig 5 EDA2 down-regulates activated EGFR and reduces cell viability. (a) Cells were stimulated with 50 ng/mL EGF for 5 min in the presence or absence of EDA peptides, followed by western blotting. An apparent decrease in phosphorylated EGFR was observed when treated with EDA2. Vertical lines indicate non-adjacent samples from the same western blot. […] Data is plotted as the average of at least three experiments, where error bars represent SEM. * p < 0.05, ** p < 0.01 relative to the EGF-stimulated control. […] (c) A panel of cell lines was dosed daily with EDA2 or gefitinib for 5 days, and viability was quantified using the Cell Titer Blue assay. […]
Proteins were separated by 8% SDS-PAGE then transferred onto PVDF membrane. […] Bands were visualized by chemiluminescence and quantified using Licor Image Studio Lite. […] Significance values were calculated using two-way ANOVA with Bonferonni multiple-comparison test. […] Significance values were calculated using one-way ANOVA with Bonferonni multiple-comparison test. […]

MDA-MB-231 cells = experiment: Cell viability, Cell Titer Blue, MDA-MB-231; details: 6.25 μM, dosed daily for 5 days, average of quadruplicates
Protocol: (§2) Fig 5 EDA2 down-regulates activated EGFR and reduces cell viability. (a) Cells were stimulated with 50 ng/mL EGF for 5 min in the presence or absence of EDA peptides, followed by western blotting. An apparent decrease in phosphorylated EGFR was observed when treated with EDA2. Vertical lines indicate non-adjacent samples from the same western blot. […] Data is plotted as the average of at least three experiments, where error bars represent SEM. * p < 0.05, ** p < 0.01 relative to the EGF-stimulated control. All remaining means are not significant (p > 0.05) relative to the EGF-stimulated control. (c) A panel of cell lines was dosed daily with EDA2 or gefitinib for 5 days, and viability was quantified using the Cell Titer Blue assay. […]
(§3) Since EDA2 appeared to downregulate EGFR phosphorylation, we sought to determine whether this activity could also lead to a decrease in cell viability (Fig. 5c). Three diverse, EGFR-expressing cell lines (MDA-MB-231, PC-3, and BxPC-3) were dosed daily with EDA2 over a 0–50 μM concentration range over a five-day time course, after which cell viability was quantified using the Cell Titer Blue assay. […]
(§4) MDA-MB-231, PC-3, or Bx-PC3 cells were seeded at 7,500 cells/well in a 96 well plate and allowed to adhere in RPMI-1640 containing 1% FBS. […] Fluorescence was quantified using 530 nm excitation and 590 nm emission filters. […]

total EGFR = molecular target: T1, total EGFR (Homo sapiens, UniProt P00533); experiment: Total EGFR protein levels in MDA-MB-231 cells, western blot; details: peptide 30 min, 50 ng/mL EGF 5 min, western blot normalized to tubulin, average of two experiments
T1 construct: EGFR autophosphorylation on Tyr1068 in intact MDA-MB-231 cells; endogenous in cells; host or cells: MDA-MB-231 (ATCC)
Protocol: as §1
While EDA2 downregulates receptor phosphorylation, we also wanted to investigate whether EGFR dimerization itself was inhibited. As a strategy to measure the number of detectable EGFR dimers in intact cells, a quantitative Proximity Ligation Assay (PLA) was performed (Fig. 6). Cells were stimulated with EGF in the presence or absence of EDA2 or its scramble control (EDA2-Scr). […] Fluorescence microscopy was used to visualize the DAPI and PLA signals.
Proteins were separated by 8% SDS-PAGE then transferred onto PVDF membrane. […] Bands were visualized by chemiluminescence and quantified using Licor Image Studio Lite. […] Significance values were calculated using two-way ANOVA with Bonferonni multiple-comparison test. […] Significance values were calculated using one-way ANOVA with Bonferonni multiple-comparison test.
Supplementary file pone.0118796.s004.tif: S4 Fig The effect of EDA2 and its controls on total EGFR protein levels in the cell. […] Cells were immediately lysed and total EGFR levels were analyzed by western blotting. […]

BxPC-3 cells = experiment: Cell viability, Cell Titer Blue, BxPC-3; details: 6.25 μM, dosed daily for 5 days, average of quadruplicates
Protocol: as §2, §3, §4

PC-3 cells = experiment: Cell viability, Cell Titer Blue, PC-3; details: 6.25 μM, dosed daily for 5 days, average of quadruplicates
Protocol: as §2, §3, §4

SMILES	effect on EGFR phosphorylation (Tyr1068) (in words) (EGFR p-Tyr1068; 0.05, 0.5 or 5 μM peptide, western blot)	reduction of cell viability (MDA-MB-231 cells) [%]	effect on EGFR expression (total EGFR) (in words) (total EGFR)	reduction of cell viability (BxPC-3 cells) [%]	reduction of cell viability (PC-3 cells) [%]	reduction of EGFR phosphorylation (Tyr1068) compared to untreated cells (EGFR p-Tyr1068; 5 μM peptide, normalized to tubulin, average of at least three experiments)
CCCC[C@H](NC(=O)[C@H](CCC(N)=O)NC(=O)[C@H](Cc1ccc(O)cc1)NC(=O)[C@@H](NC(=O)[C@@H](NC(=O)[C@@H]1CCCN1C(=O)[C@H](CC(N)=O)NC(=O)[C@H](Cc1ccc(O)cc1)NC(=O)[C@H](C)NC(=O)CCNC(=O)c1ccc2c(c1)C(=O)OC21c2ccc(O)cc2Oc2cc(O)ccc21)[C@@H](C)O)[C@@H](C)O)C(=O)N[C@@H](C)C(N)=O [non-modified control, reference compound] ({5FAM-βAla}-AYNPTTYQ[Nle]A-NH2)	no inhibitory effect					
CCCC[C@@H]1NC(=O)[C@H](CCC(N)=O)NC(=O)[C@H](Cc2ccc(O)cc2)NC(=O)[C@H]([C@@H](C)O)NC(=O)[C@H]([C@@H](C)O)NC(=O)[C@@H]2CCCN2C(=O)[C@H](CC(N)=O)NC(=O)[C@H](Cc2ccc(O)cc2)NC(=O)[C@@H](NC(=O)c2ccc3c(c2)C(=O)OC32c3ccc(O)cc3Oc3cc(O)ccc32)Cc2cn(nn2)CC[C@@H](C(N)=O)NC1=O [EDA2] (5FAM-[Pra]YNPTTYQ[Nle][Aha]-NH2; triazole 1-10)		50	no effect	34	72	greater than 60%
